This passage reports TGI and GI50 results from PubChem BioAssay (NCI).

What all share (assay): inhibition of tumour cell growth, NCI panel, 48 h
The test system of assay [1] is IGROV1 ovarian.
In assay [2] the test system is KM12 colon.
For assay [3], the system named is NCI-H23 lung.
Assay [4] has as its system NCI-H460 lung.
The subject of assay [5] is RPMI-8226 leukemia.
The subject of assay [6] is RXF 393 renal.
Assay [7] deals with OVCAR-8 ovarian.
In assay [8] the test system is M14 melanoma.
Assay [9] has as its system CCRF-CEM leukemia.
Assay [10] deals with SF-268 CNS.

Where “and” joins values, the source holds several entries; their conditions need not be identical. Equal entries are not always repeated.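 Step 1: Grow cells in 96-well plates. Step 2: Expose to compound for 48 hours at 5 concentrations. Step 3: Interpolate endpoints linearly; if unreached, use highest concentration. GI50 = concentration required for 50% inhibition of growth. At the TGI there is no net growth.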 *1 amine or outer side, *2 acyl side, *3 side chain or, on linkers, in order; H or OH if unused. Where a SMILES comes first, the peptide text is derived from it. Bridges are numbered along the chain shown (N, C = ends). [ ]: non-standard residue; d: D form. The star is where a group is joined. Phe(3-Me) = Cc1cccc(C[C@H](N)C(=O)O)c1; NH(4-Cl-2-F-phenyl) = Fc1cc(Cl)ccc1N*; Pro(4R-Me) = C[C@H]1CN[C@H](C(=O)O)C1; Propanoyl(3-NMe2) = CN(C)CCC(=O)*; Hyp = O=C(O)[C@@H]1C[C@@H](O)CN1; aThr = C[C@H](O)[C@H](N)C(=O)O; Pip = O=C(O)[C@@H]1CCCCN1; CO = O=C([*:1])[*:2]

As for `CC(C)CC(=O)NS(=O)(=O)c1ccccc1`, the TGI in [1], in assay [2], in assay [3], in [4], in [5] and in assay [6] was over 100 µM throughout. For the same compound, the TGI in assay [7], in [8], in [9] and in [10] was over 100 µM in each case.

In the case of `O=C([O-])c1ccccc1Nc1ccccc1[O-].[Ni+3].[OH3+].[OH3+].[OH3+]`, the GI50 in [1], in assay [2], in assay [3], in assay [4], in assay [5] and in assay [6] was over 100 µM each time. Moreover, the GI50 in assay [7], in assay [8], in [9] and in [10] was over 100 µM each time. In addition, the TGI in assay [1], in [2], in assay [3], in assay [4], in [5] and in assay [6] was over 100 µM in each case. Also, the TGI in assay [7], in [8], in [9] and in [10] was over 100 µM throughout.

Turning to `Nc1nc2c(c3cnccc13)C(c1cccc(Cl)c1)Cc1cnccc1-2` (configuration not stated), the GI50 in assay [1] is 0.644 µM; in assay [2], 0.409 µM; in assay [3], 0.382 µM; in assay [4], 0.385 µM; in assay [5], 0.48 µM; in assay [6], 0.268 µM. The GI50 was 0.601 µM in assay [7], 0.297 µM in assay [8], 0.429 µM in assay [9] and 0.741 µM in assay [10]. Further, the TGI in [1] was 15.3 µM; in assay [2] it was 12.2 µM; in assay [3] it was 3.51 µM; in assay [4] it was 11.6 µM; in assay [5] it was 20.2 µM; in assay [6], 0.765 µM. In addition, the TGI in [7] came out at 22.5 µM; in assay [8], 11 µM; in assay [9], 19.5 µM; in [10], 16.5 µM.

On to `S=C(N/N=C(/c1ccccc1)c1ccccn1)Nc1cccc(Cl)c1`, for which the GI50 in [1] is 0.28 µM; in [2] it was 0.144 µM; in [3], 1.35 µM; in [4] it was 0.612 µM; in [5] it was 0.00601 µM; in assay [7], 0.0258 µM. Moreover, the GI50 in assay [8] is 0.0154 µM; in assay [9], under 0.001 µM; in assay [10], 2.33 µM. Besides, the TGI in assay [1] is 2.03 µM and 6.68 µM; in assay [2], 3.55 µM and 6.75 µM; in [3] it was 5.58 µM and 16.8 µM; in [4], 4.69 µM; in [6], 2.51 µM and 3.86 µM; in assay [7] it was 2.87 µM. The TGI in [8] was 2.24 µM and 1.89 µM; in assay [9], 0.0383 µM; in assay [10], 16.6 µM.

For `CSc1nc2c(c(=O)[nH]1)C(c1ccc(Cl)cc1)C1=C(N2)/C(=C/c2ccc(Cl)cc2)CNC1` (configuration not stated), the GI50 in assay [1] is 2.56 µM; in assay [2] it was 2.06 µM; in [3], 2.48 µM; in [4], 2.75 µM; in assay [5], 0.629 µM; in assay [6] it was 1.65 µM. The GI50 was 2.7 µM in assay [7], 2.23 µM in [8], 2.55 µM in assay [9] and 2.76 µM in assay [10]. Also, the TGI in assay [1] was determined as 7.04 µM; in [2], 4.47 µM; in assay [3], 5.84 µM; in assay [4], 7.61 µM; in [5], 3.14 µM; in [6], 3.42 µM. Also, the TGI in assay [7] was determined as 8.72 µM; in assay [8] it was 6.18 µM; in [9] it was 8.99 µM.

For the compound `Cc1cccc(C[C@H](NC(=O)Nc2ccc(Cl)cc2F)C(=O)N[C@@H]2C(=O)N3C[C@H](OC(=O)CCN(C)C)C[C@H]3C(=O)N3CCCC[C@H]3C(=O)N[C@@H](C)C(=O)N3C[C@H](C)C[C@H]3C(=O)O[C@H]2C)c1` ({NH(4-Cl-2-F-phenyl)-CO}-[Phe(3-Me)][aThr][Hyp](Propanoyl(3-NMe2))[Pip]A[Pro(4R-Me)]; ester 2-C), the GI50 in [1] is 0.94 µM; in [2], 0.746 µM; in assay [3] it was 0.519 µM; in [4], 0.386 µM; in [5], 0.181 µM; in assay [6], 1.23 µM. Further, the GI50 was 0.431 µM in assay [7], 0.474 µM in [8], 0.47 µM in assay [9] and 0.466 µM in assay [10]. For the same compound, the TGI was determined as 2.46 µM in assay [1]; 2.34 µM in [2]; 3.17 µM in assay [3]; 1.82 µM in assay [4]; 1.88 µM in [5]; 2.85 µM in assay [6]. Besides, the TGI in assay [7] worked out at 12.9 µM; in [8] it was 1.89 µM; in [9] it was 7.81 µM; in [10] it was 4.08 µM.

`COc1cc2c3c(n(CCCCl)c(=O)c2cc1OC)-c1ccc(C#N)cc1C3=O`: the GI50 in [1] was 3.64 µM; in assay [2] it was over 100 µM; in assay [3] it was 8.38 µM; in [4], 10.8 µM; in assay [5], 3.97 µM; in [6], 3.85 µM. For the same compound, the GI50 in assay [7] was 6.3 µM; in [8], 9.24 µM; in [9] it was 3.59 µM; in assay [10], 19.5 µM. In addition, the TGI in assay [1] is 23.1 µM; in assay [2], over 100 µM; in [3], 20.9 µM; in assay [4], over 100 µM; in assay [5] it was over 100 µM; in [6] it was 18.1 µM. Besides, the TGI in assay [7] was 34.4 µM; in [8] it was over 100 µM; in [9], over 100 µM; in assay [10], over 100 µM.
